In patent US20050222406A1, “Condensed palatinose in hydrogenated form” (priority 2002, published 2005):

Legend:
[1] = test system: glucoamylase/maltase (GM) enzyme complex; assay: Cleavability by small-intestine α-glucosidases, GM complex; type: in vitro ADME, porcine; details: 2 hours, 37° C.
Experimental: Mixing was followed by incubation at 37° C.

[2] = test system: saccharase/isomaltase (SI) enzyme complex; assay: Cleavability by small-intestine α-glucosidases, SI complex; details: 2 hours, 37° C.
Experimental: The saccharase/isomaltase (SI) and glucoamylase/-maltase (GM) enzyme complexes were isolated from porcine small intestine by the method of H. Heymann (Dissertation, Hannover, 1991).
• triethanolamine (TRA) buffer, 0.1 M, pH 7.0 • saccharide, 1% strength solution in TRA buffer • maltose or sucrose, as control substances, 1% strength in TRA buffer • mucosa enzyme, dissolved in TRA buffer Reaction Mixture:
1.2 ml of the carbohydrate solution, at a controlled temperature of 37° C., were admixed with 0.7 U of the saccharase/isomaltose or glucoamylase/maltase enzyme complex, respectively, at t=0. Mixing was followed by incubation at 37° C. The reaction was stopped after 2 hours by heating at 95° C. for 15 minutes. The monosaccharides formed and also the test substances used were assayed by HPAEC.

[3] = Stability in the stomach: rate of hydrolysis at pH 2.0; type: physicochemical; details: pH 2.0 (0.01 M HCl), 37° C., 1% solution
Experimental: The stability of a substance on passage through the stomach can be ascertained by determining the rate of hydrolysis at a pH of 2.0, using sucrose and 1-kestose as controls.
Samples were taken from the reaction mixture after 60, 120 and 180 minutes. They were analyzed by means of HPAEC techniques.
Report as hydrolysis rates in %

| hydrolysis by the GM enzyme complex [1] | hydrolysis by the SI enzyme complex [2] | hydrolysis rate ([3]; incubation time 0 min.) | hydrolysis rate ([3]; incubation time 60 min.) | hydrolysis rate ([3]; incubation time 120 min.) | hydrolysis rate ([3]; incubation time 180 min.) | SMILES |
| --- | --- | --- | --- | --- | --- | --- |
| virtually complete hydrolysis | virtually complete hydrolysis | – | – | – | – | OC[C@H]1O[C@H](O[C@H]2[C@H](O)[C@@H](O)C(O)O[C@@H]2CO)[C@H](O)[C@@H](O)[C@@H]1O (mixture of isomers) [Maltose, maltose] |
| – | – | 0% | 11% | 25% | 36% | OC[C@H]1O[C@@](CO)(OC[C@@]2(O[C@H]3O[C@H](CO)[C@@H](O)[C@H](O)[C@H]3O)O[C@H](CO)[C@@H](O)[C@@H]2O)[C@@H](O)[C@@H]1O [1-Kestose, 1-kestose] |
| – | virtually complete hydrolysis | 0% | 2% | 5% | 8% | OC[C@H]1O[C@@](CO)(O[C@H]2O[C@H](CO)[C@@H](O)[C@H](O)[C@H]2O)[C@@H](O)[C@@H]1O [Sucrose, sucrose] |
